Structures are written as SMILES.

Sequence of Mitogen-activated protein kinase 14 (Q16539 whole entry): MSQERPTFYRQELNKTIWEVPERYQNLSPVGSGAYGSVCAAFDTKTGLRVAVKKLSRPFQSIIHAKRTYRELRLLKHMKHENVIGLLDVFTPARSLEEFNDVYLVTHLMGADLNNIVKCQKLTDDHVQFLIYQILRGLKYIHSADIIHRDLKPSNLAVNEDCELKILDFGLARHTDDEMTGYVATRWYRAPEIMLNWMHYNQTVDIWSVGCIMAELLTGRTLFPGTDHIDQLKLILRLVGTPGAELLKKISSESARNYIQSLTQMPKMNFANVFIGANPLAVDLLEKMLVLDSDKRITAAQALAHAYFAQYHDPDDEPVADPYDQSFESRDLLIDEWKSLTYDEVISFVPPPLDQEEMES

This experiment has as its target Mitogen-activated protein kinase 14 (Homo sapiens, UniProt Q16539). As to the kind of experiment: Inhibition of p38alpha MAPK after 40 mins by scintillation counting.
The IC50 is the concentration at which inhibition is half-maximal. As to `O=c1c(-c2ccc(F)cc2)c(-c2ccnc(Cl)c2)oc2ccccc12`, the 50% inhibitory concentration (IC50) is 1.38 µM.

Turning to `COCCCNc1cc(-c2oc3ccccc3c(=O)c2-c2ccc(F)cc2)ccn1`, the IC50 is 0.039 µM.

For `O=c1c(-c2ccc(F)cc2)c(-c2ccncc2)oc2ccccc12`, the midpoint of inhibition, the IC50, lay at 0.813 µM.

`CN(C)CCCNc1cc(-c2oc3ccccc3c(=O)c2-c2ccc(F)cc2)ccn1` displayed an IC50 of 0.761 µM.

`CCCCNc1cc(-c2oc3ccccc3c(=O)c2-c2ccc(F)cc2)ccn1` showed an IC50 of 0.021 µM.

As to `O=c1c(-c2ccc(F)cc2)c(-c2ccnc(NC3CCOCC3)c2)oc2ccccc12`, the half-inhibitory concentration (IC50) stood at 0.045 µM.

For the compound `O=c1c(-c2ccc(F)cc2)c(-c2ccnc(NCc3ccccc3)c2)oc2ccccc12`, 0.035 µM corresponded to half-maximal inhibition (IC50).

Values taken from ChEMBL document CHEMBL2040781, “Design, synthesis, and biological evaluation of chromone-based p38 MAP kinase inhibitors” (J Med Chem, 2011).
